Measured values reported in patent publication US10106853B2, “CUL4B as predictive biomarker for cancer treatment” (CORNELL UNIVERSITY, priority 2012, dated 2018).

Legend:
[1] = test system: γH2AX foci in BT474 cells; assay: Immunofluorescent detection of γH2AX foci; assay type: cell-based, Human; details: 2 μM CPT 2 hours, 1 hour repair
Method: FIG. 3. CUL4B^k/d BT474 cells are susceptible to CPT-induced DNA damage. A) Persistent DNA damage in CPT-treated BT474-CUL4B^k/d cells. Control or CUL4B^k/d BT474 cells were treated with 2 μM of CPT for the indicated time periods, replenished with CPT-free fresh medium, incubated at 37° C. for 1 hour to repair DNA damage, and subjected to immunoblotting with the anti-γH2AX antibody to determine the extent of DNA damage. B) Immunofluorescent detection of γH2AX foci in control or CUL4B^k/d BT474 cells following CPT treatment. BT474 cells were infected with lentiviral control shRNA (shCtrl) or shCUL4B, treated with 2 μM CPT for 2 hours and replenished with CPT-free fresh medium, incubated at 37° C. for 1 hour to repair DNA damage. γH2AX foci were detected by immunofluorescent assay with the rabbit anti-γH2AX antibody and goat anti-rabbit secondary antibody conjugated with cy3 (red). Nuclei were stained with DAPI (blue). C, D) Percentage of γH2AX-positive cells and number of persistent γH2AX foci in a total of 300 γH2AX-positive cells. All values were presented as mean±S.E. Statistical significance was assessed by a two-tailed unpaired Student t-test (***: p<0.001).
Cells were initially grown on chamber slides. […] After PBS washes, cells were mounted with FluroSave™ Reagent (Calbiochem), and visualized under the fluorescence microscope, and images were captured via camera.

BT474 cells = assay: XTT assay for cytotoxic response to camptothecin, BT474; assay type: cell-based, Human
Method: FIG. 2. CUL4B interacted with Top1 and induced Top1 degradation in the presence of CPT. A) Knockdown of CUL4B impaired CPT-induced Top1 degradation. BT474 cells were infected with lentiviral shCUL4B, shCUL4A or control non-targeting shRNA, and selected for stable CUL4B^k/d or CUL4A^k/d cells upon treatment with puromycin. Following treatment with CPT (50 μM) for 1 hour, cells were replenished with CPT-free fresh medium and incubated at 37° C. for 30 minutes. Top1 degradation was assessed by immunoblotting with an anti-Top1 antibody. Levels of α-tubulin were measured as a loading control. B) Association of CUL4B with Top1 following CPT treatment. […] Top1 degradation was assessed by immunoblotting with the anti-Top1 antibody. Levels of α-tubulin were measured as a loading control. […] Statistical significance in cellular response to CPT between control BT474 cells and CUL4A^k/d or CUL4B^k/d cells were assessed by a two-tailed unpaired student t-test (***: p<0.001). […] Statistical significance in cellular response to camptothecin between control cells and CUL4A^k/d or CUL4B^k/d BT474 cells are assessed by student's t-test.
Synchronized cells were seeded into 96-well microplates. […] The optical density was measured with a microplate reader. […] Data were expressed as the mean±S.E. Difference in the survival ratios between the two cell lines at each concentration point was assessed by the student's T test. […]

CC[C@@]1(O)C(=O)OCc2c1cc1n(c2=O)Cc2cc3ccccc3nc2-1 [CPT, (S)-4-ethyl-4-hydroxy-1H-pyrano[3′,4′:6,7]indolizino[1,2-b]quinoline-3,14-(4H, 12H)-dione]
Cells with accumulation of γH2AX foci ([1]; CPT-treated CUL4B k/d BT474 cells): 50% | Cells with accumulation of γH2AX foci ([1]; CPT-treated control BT474 cells): 20% | Survival rate of CPT-treated cells (BT474 cells; BT474 cells with knockdown of CUL4A): no effect | Cytotoxic killing by CPT (cell survival) (BT474 cells; BT474 cells with knockdown of CUL4B, CPT three days): sensitized
